Assay results: patent publication US20230160878A1, “METHOD OF SCREENING A THERAPY FOR INDUCTION OF FERROPTOSIS” (priority 2020, published 2023)

Key:
[1] = test system: HMOX1; assay: nascent RNA sequencing, transcriptional response to GPX4 inhibitors, HT-1080; assay type: cell-based; settings: HT-1080, 1 μM, 1 hour
Method: (§1) To assess the transcriptional response of a cell to inhibition of GPX4, we exposed two cell lines to two different chemical inhibitors of GPX4 (ML162 and RSL3; available from Sigma Aldrich and Apex Bio respectively) and examined the transcriptional responses using a nascent RNA sequencing protocol. Briefly, a fibrosarcoma cell line HT-1080 and a lung fibroblast cell line IMR90 were exposed to 1 μM ML162 or 1 μM RSL3 for 1 hour and the nascent RNA sequencing protocol was performed.

[2] = test system: HMOX1; assay: RT-qPCR of HMOX1 expression in HT-1080 cells; assay type: cell-based; settings: for HMOX1 induction with versus without ferrostatin-1: HT-1080, sodium arsenite 80 μM, hemin 5 μM, RSL3 1 μM, with or without 1 μM ferrostatin-1, four hours, normalized to DMSO
Method: (§2) To confirm HMOX1 induction by the GPX4 inhibitors, an RT-qPCR assay was performed using three ferroptosis sensitive cancer cell lines: the fibrosarcoma cell line HT-1080, a Ewing's sarcoma cell line A673, and a renal clear cell carcinoma cell line 786-O. Briefly, cells were exposed to 1 μM ML162 or 1 μM RSL3 for 4 hours, RNA was isolated and an RT-qPCR assay was performed.
To further validate induction of HMOX1 mRNA expression by GPX4 inhibition, RT-qPCR was performed using varying doses of the RSL3 inhibitor. Briefly, HT-1080 cells were exposed to 5 μM RSL3, 1 μM RSL3, and 0.2 μM RSL3 for four hours, RNA was isolated and an RT-qPCR assay was performed to quantify HMOX1 expression. DMSO was used as a control exposure.
(§3) Briefly, HT-1080, A673, and 786-O cells were exposed to 1 μM ML162 or 1 μM RLS3 with or without 1 μM ferrostatin-1 for four hours, RNA was isolated and an RT-qPCR assay was performed to quantify HMOX1 expression. DMSO was used as a control exposure.
Sodium arsenite and hemin are known to be inducers of general oxidative stress in cells. Briefly, HT-1080 cells were exposed to sodium arsenite (80 μM), hemin (5 μM), ML162 (1 μM), or RSL3 (1 μM) with or without 1 μM ferrostatin-1 for four hours, RNA was isolated and an RT-qPCR assay was performed to quantify HMOX1 expression. DMSO was used as a control exposure.

[3] = test system: HMOX1; assay: RT-qPCR of HMOX1 expression in 786-O cells; assay type: cell-based; settings: 1 μM; for relative expression of HMOX1 in absence of ferrostatin-1: four hours, relative to ACTB
Method: as §2, §3

[4] = test system: HMOX1; assay: nascent RNA sequencing, transcriptional response to GPX4 inhibitors, IMR90; assay type: cell-based; settings: IMR90, 1 μM, 1 hour
Method: as §1

[5] = test system: HMOX1; assay: RT-qPCR of HMOX1 expression in A673 cells; assay type: cell-based; settings: A673, 1 μM; for relative expression of HMOX1 in absence of ferrostatin-1: four hours, relative to ACTB
Method: as §2, §3

[6] = test system: HMOX1; assay: RT-qPCR rescue of GPX4 inhibitor-mediated HMOX1 induction by ferrostatin-1 (HT-1080, A673 and 786-O pooled statement); assay type: cell-based; settings: 1 μM ferrostatin-1 with 1 μM ML162 or RSL3, HT-1080, A673, 786-O, four hours
Method: as §3

[7] = test system: HT-1080, A673, and 786-O cells lines; settings: ferrostatin-1 added to culture media; HT-1080, A673, 786-O; cited from earlier work
[8] = HT-1080, 1 μM, four hours, relative to ACTB
[9] = 4 hours, normalized to DMSO control, n=2

Question: For COc1ccc(N(C(=O)CCl)C(C(=O)NCCc2ccccc2)c2cccs2)cc1Cl (centres unmarked) [ML162], which “HMOX1 differential expression (nascent transcription)” value [1] is on record?
Answer: strongly differentially expressed

Question: What about the “relative expression of HMOX1 in presence of ferrostatin-1” value ([2]; HT-1080, 1 μM with 1 μM ferrostatin-1, four hours, relative to ACTB) of the same molecule?
Answer: induced HMOX1 even in the presence of ferrostatin-1

Question: And the “relative expression of HMOX1 in absence of ferrostatin-1” value [2, 8]?
Answer: HMOX1 expression was observed

Question: And the “relative expression of HMOX1 in absence of ferrostatin-1” value [3]?
Answer: HMOX1 expression was observed

Question: And the “HMOX1 differential expression (nascent transcription)” value [4]?
Answer: strongly differentially expressed

Question: What about the “relative expression of HMOX1 in absence of ferrostatin-1” value [5] of the same molecule?
Answer: HMOX1 expression was observed

Question: Which results are given for COC(=O)c1ccc([C@@H]2c3[nH]c4ccccc4c3C[C@@H](C(=O)OC)N2C(=O)CCl)cc1 [RSL3]?
Answer: HMOX1 differential expression (nascent transcription) [1]: strongly differentially expressed; fold induction for HMOX1 mRNA ([2]; HT-1080, 1 μM, 4 hours, normalized to DMSO control, n=2): induced; relative expression of HMOX1 in absence of ferrostatin-1 [2, 8]: HMOX1 expression was observed; relative expression level of HMOX1, dose dependence ([2]; HT-1080, 5 μM, 1 μM and 0.2 μM, four hours, relative to ACTB): proportional to the dose; HMOX1 induction with versus without ferrostatin-1 [2]: dependent on lipid peroxidation; fold induction for HMOX1 mRNA [3, 9]: induced; relative expression of HMOX1 in absence of ferrostatin-1 [3]: HMOX1 expression was observed; HMOX1 differential expression (nascent transcription) [4]: strongly differentially expressed; fold induction for HMOX1 mRNA [5, 9]: induced; relative expression of HMOX1 in absence of ferrostatin-1 [5]: HMOX1 expression was observed

Question: Which “effect of ferrostatin-1 on HMOX1 induction by GPX4 inhibitors” value [6] does the source give for CCOC(=O)c1ccc(NC2CCCCC2)c(N)c1 [ferrostatin-1] here?
Answer: sufficient to prevent induction of HMOX1 in most conditions

Question: What about the “cellular viability of cells treated with small molecules that induce lipid peroxidation” value [7] of the same molecule?
Answer: rescues cellular viability

Question: With O=[As]O [sodium arsenite] as the molecule, how does the “HMOX1 induction with versus without ferrostatin-1” value [2] read?
Answer: not affected by the presence of ferrostatin-1

Question: For hemin, which “HMOX1 induction with versus without ferrostatin-1” value [2] is on record?
Answer: not affected by the presence of ferrostatin-1
